Results as given in patent publication US20230220354A1, “COMPOSITIONS AND METHODS FOR CONTROLLING CELLULAR IDENTITY” (King Abdullah University of Science and Technology, priority 2020, published 2023).
Entries after “also recorded” stand apart in the source; their conditions may differ.

Assays:
astrocytes = experiment: Lethality of individual metabolites for astrocytes in serum-free base medium; assay type: cell-based, mouse; conditions: millimolar (high) concentrations
Method: The cocktail customization was performed in primary cultures of mature astrocytes, between the second and the fourth passage. Those cells were maintained at least 8 days in culture before passaging. We corroborated the expression of Gfap before starting the experiment by immunocytochemistry (FIG. 1G). We tested individual metabolites at different concentrations in a serum-free medium (base media, BM). BM contained equivalent volumes of DMEM-F12 and Neurobasal, plus the supplements N2 and B27 at 1X. Notes about specific molecules added. S-adenosylmethionine (SAM) at millimolar concentrations was lethal for astrocytes, which is in line with the lower physiological concentrations usually found for this metabolite compared to others. Cysteine is high-sensitive to oxidation, which is manifested as white flake precipitation, a high-concentrated stock solution [2500mM] dissolved in ddH2O with pH slightly acid (5.5-6) was prepared to prevent this issue. We corroborated a pH always close to 7.4 in the cells maintained in vitro, before and after treating them with cocktails containing the diluted solution of cysteine.

[1] = tested on: primary cultures of mature astrocytes; experiment: Customization of C1-MIM concentrations: relative gene expression (Gfap, Cd44) by rtPCR in mature astrocytes; assay type: cell-based, mouse
Method: Astrocytes were derived from cortical tissues postnatal or differentiated from dissociated neurospheres after a second or third passage, as described herein. For postnatal astrocytes, cortices were isolated from P4 mice pups to get single cells and were plated as described by Schildge et al.^51Confluent cultures were sorted with Anti-GLAST (ACSA-1) Microbead kit according to manufacturer instructions. For inducing differentiation from NSCs, single cells derived from neurospheres were exposed to astrocyte media. In both cases, cells were plated over pre-treated Poly-L-Lysine plates or Poly-D-Lysine glass-coverslips using Astrocyte Differentiation Medium (DMEM-F12, 10% heat-inactivated FBS, lx B27, and 1X Glutamax).
Cell cultures seeded on adherent conditions were kept on their respective differentiation media until they reach a mature phenotype (defined by the expression of markers specific to each cell type). When cultures reached around 80-90% confluence, the differentiation media was removed, cells were washed twice with PBS and the media was replaced with CI-MIM. The composition of C1-MIM includes up to 6 metabolites (details of the combinations used are specified in figure legends) including Methionine, Threonine, Glycine, Putrescine, Cysteine [5mM], and S-adenosylmethionine [0.05mM], which are dissolved in a base medium (BM) composed by DMEM-F12 plus Neurobasal [1:1], supplemented with 1X B27, 1X N2. […] In all cases, from the same batch of each cell culture, a control culture was also washed with PBS but maintained with their own differentiation media along all the time of the treatment. Cells in this schema were fed every other day. Cells were monitored daily to attest to the change in morphology. Cells were collected on the fifth day or earlier after starting the MIM treatment (indicated in each specific case in the figure legend) for further analyses, as indicated in the figure legends of each experimental approach. Viability of cultures at the time of collection was measured by trypan blue, and all cases above 85% viable cells were processed for downstream analyses.
Total RNA was isolated from cells grown on Petri dish at the indicated time points, using the RNeasy Plus Mini kit QIAGEN, according to the manufacturer's protocol, including a DNA-removal step with DNAseI. Amount and purity of RNA were assessed using a NanoDrop spectrophotometer (Nanodrop Technologies); at least 500 ng of total RNA was used to synthesize cDNA by reverse transcription, using Maxima™ H
Minus cDNA Synthesis Master Mix. 2.5-10 ng of cDNA was used in the following qPCR performed on a CFX384 thermal cycler (Bio-Rad) using the SsoAdvanced™ Universal SYBR® Green Supermix. Results were normalized to at 193 least one reference genes β-Actin, RPL38, GAPDH, Gus, CTCF, and Natl, specified per figure), selected for their highest stability among a pool of common housekeeping genes. Primers were designed by NCBI/Primer-BLAST primers designing tool (Table 1). Statistical analysis of the results was performed using the 2ACt method^s. Results were expressed relative to the expression values of the experimental control.
The cocktail customization was performed in primary cultures of mature astrocytes, between the second and the fourth passage. Those cells were maintained at least 8 days in culture before passaging. […] We tested individual metabolites at different concentrations in a serum-free medium (base media, BM). […]

C[S+](CC[C@H](N)C(=O)[O-])C[C@H]1O[C@@H](n2cnc3c(N)ncnc32)[C@H](O)[C@@H]1O (stereo partly shown) [S-adenosylmethionine]
lethality / toxicity for astrocytes (astrocytes): lethal; also recorded: toxic
lethality / toxicity for astrocytes (astrocytes; listed as SAM): lethal

N[C@@H](CS)C(=O)O [cysteine]
Gfap expression ([1]; individual metabolite, range of concentrations (0.025 to 10mM)): potentiates

NCCCCN [putrescine]
Gfap expression ([1]; separate metabolite at 1mM): repressed

C[C@@H](O)[C@H](N)C(=O)O [threonine]
Gfap expression ([1]; separate metabolite at 1mM): repressed

FGF2: growth factor added to improve cell survival in serum-free medium [reference compound]
Gfap expression ([1]; 20ng/mL): did not inhibit
Gfap expression ([1]; concentrations lower than 20ng/mL): potentiate
